US20250145948A1, “METHOD FOR ASSESSING DIFFERENTIATION POTENTIAL OF CELLS IN CULTURE BROTH IN DIFFERENTIATION OF PLURIPOTENT STEM CELLS INTO NEURAL CELLS OF MIDBRAIN FLOOR PLATE REGION” (SUMITOMO PHARMA CO., LTD., priority 2022, published 2025)

Experiments:
iPS cell line (1231A3) [1] = assay: Concentration analysis of NT-3 in culture supernatant (Bioplex); assay type: cell-based, human; details: cell group A1 (SAG 300 nM pretreatment)
Experimental: (§1) An iPS cell line (formal name: 1231A3) as a line for research was used and cultured in a medium having composition given below. The medium was supplemented (with pretreatment) with SAG (N-Methyl-N′-(3-pyridinylbenzyl)-N′-(3-chlorobenzo[b]thiophene-2-carbonyl)-1,4-diaminocyclohexane, final concentration: 300 nM) for 1 day from 1 day before the start of differentiation culture (Day −1) to the start day of differentiation (Day 0) to establish a cell group having high induction efficiency (cell group A1). An untreated cell group (cell group A2) was also established for comparison by cell culture under the same conditions as in the cell group A1 except that the medium was not supplemented with SAG.
(§2) The pluripotent stem cells in each of six types of cell groups provided in the culture experiments A, B, and C were induced to differentiate into neural cells of the midbrain floor plate region in accordance with a predetermined protocol. […] The ratio of Corin-positive cells in each cell group was measured using a cell sorter (BD FACSJazz, BD Accuri or Furukawa PERFLOW Sort) on 12 days from the start of differentiation. […]

iPS cell line (1231A3) [2] = assay: Ratio of Corin-positive cells after induction of differentiation into neural cells of the midbrain floor plate region (cell sorter); assay type: cell-based, human; details: cell group A1: pretreatment with SAG 300 nM from Day -1 to Day 0; culture day 12 for the induction of differentiation
Experimental: as §1
As for the medium in the culture experiment A, AK03N basal medium manufactured by Ajinomoto Co., Inc. was used before the start of differentiation, and GMEM containing 8% KSR was used as a basal medium at and after the start of differentiation (Day 0).
as §2

With `CNC1CCC(N(Cc2cccc(-c3ccncc3)c2)C(=O)c2sc3ccccc3c2Cl)CC1` (stereo not drawn) [SAG, N-Methyl-N′-(3-pyridinylbenzyl)-N′-(3-chlorobenzo[b]thiophene-2-carbonyl)-1,4-diaminocyclohexane] the “NT-3 in culture supernatant” value (iPS cell line (1231A3) [1]; sample collected 3 days after the start of differentiation) was “specifically increased”, the “NT-3 in culture supernatant” value (iPS cell line (1231A3) [1]; samples collected 1 day and 5 days after the start of differentiation) was “not detected” and the “ratio of Corin-positive cells” value (iPS cell line (1231A3) [2]) was 90%.
